Experimental findings from patent US8802664B2 (Bioproject, priority 2010, dated 2014) are described below.

As a reminder, the melting point is the temperature, or range, at which the solid turns liquid.

Where a name gives a salt, the structure may show the parent alone.

`CN1CCC(NC(c2cccc(I)c2)c2nc3ccccc3s2)CC1` (stereo not shown) (as salt: oxalate) [Example 48, [benzothiazol-2-yl(3-iodophenyl)methyl](1-methylpiperidin-4-yl)amine] came in with a melting point of 188 to 195 °C.
Compound `CN1CCC(OC(c2nc3ccccc3s2)c2cc(OC(F)(F)F)ccc2F)CC1` (stereo not shown) (as salt: oxalate) [Example 526] displayed a melting point of 95 °C.
Under `CN1CCC(OC(c2nc3ccccc3s2)c2ccc(F)cc2F)CC1` (stereo not shown) (as salt: oxalate) [Example 12, 2-[(2,4-difluorophenyl)(1-methyl-piperidin-4-yloxy)methyl]-benzothiazole] stands 182 °C; under `CN1CCC(OC(c2cccc(N3CCC(O)C3)c2)c2nc3ccccc3s2)CC1` (stereo not shown) (as salt: oxalate) [Example 407, 1-{3-[benzothiazol-2-yl(1-methylpiperidin-4-yloxy)methyl]phenyl}pyrrolidin-3-ol], 106 °C.
`CN1CCC(OC(c2cccc(OCc3ccncc3)c2)c2nc3ccccc3s2)CC1` (stereo not shown) (as salt: oxalate) [Example 265, 2-{(1-methylpiperidin-4-yloxy)[3-(pyridin-4-ylmethoxy)phenyl]methyl}benzothiazole] registered a melting point of 101 °C.
With `CN1CCC(OC(c2cccc(N3CC4CC(N)CC4C3)c2)c2nc3ccccc3s2)CC1` (stereo not shown) (as salt: oxalate) [Example 471], the melting point stood at 126 °C.
In the case of `CN1CCC(OC(c2cccc(OCCCCN3CCCCC3)c2)c2nc3ccccc3[nH]2)CC1` (stereo not shown) (as salt: oxalate) [Example 333, 2-{(1-methylpiperidin-4-yloxy)[3-(4-piperidin-1-yl-butoxy)phenyl]methyl}-1H-benzimidazole], the melting point was found to be 130 °C.
`CN1CCC(OC(c2cccc(OCC3CCCCC3)c2)c2nc3ccccc3s2)CC1` (stereo not shown) (as salt: oxalate) [Example 285, 2-[(3-Cyclohexylmethoxyphenyl)(1-methylpiperidin-4-yloxy)methyl]benzothiazole] gave a melting point of 101 °C.
Under `CN1CCC(COC(c2cccc(Br)c2)c2nc3cc(F)ccc3[nH]2)C1` (stereo not shown) (as salt: oxalate) [Example 449, 2-[(3-bromophenyl)(1-methylpyrrolidin-3-ylmethoxy)methyl]-5-fluoro-1H-benzimidazole] stands 70 °C; under `CN1CCC(OC(c2cccc(C#CCCCCNC(=N)N)c2)c2nc3ccccc3s2)CC1` (stereo not shown) (as salt: hydrochloride) [Example 342, N-(6-{3-[benzothiazol-2-yl(1-methylpiperidin-4-yloxy)methyl]phenyl}hex-5-ynyl)guanidine], 185 °C.
`CN1CCC(OC(c2ccc3ccsc3c2)c2nc3ccccc3[nH]2)CC1` (stereo not shown) (as salt: oxalate) [Example 556, 2-[benzo[b]thiophen-6-yl(1-methylpiperidin-4-yloxy)methyl]-1H-benzimidazole] displayed a melting point of 160 °C.
As for `CN1CCC(OC(c2cccc(OCC3CCCN(C)C3)c2)c2nc3ccccc3s2)CC1` (stereo not shown) (as salt: oxalate) [Example 379, 2-[[3-(1-methylpiperidin-3-ylmethoxy)phenyl](1-methylpiperidin-4-yloxy)methyl]benzothiazole], the melting point came to 76 °C.
`CN1CCC(OC(c2cccc(SCCCCCCO)c2)c2nc3ccccc3s2)CC1` (stereo not shown) (as salt: oxalate) [Example 292, 6-{3-[benzothiazol-2-yl(1-methylpiperidin-4-yloxy)methyl]phenylsulfanyl}hexan-1-ol] came in with a melting point of 80 °C.
Next, `CN1CCC(NC(c2cccc(OCC3CCCCC3)c2)c2nc3ccccc3s2)CC1` (stereo not shown) (as salt: oxalate) [Example 93, [benzothiazol-2-yl(3-cyclohexylmethoxyphenyl)methyl](1-methylpiperidin-4-yl)amine]: 98 °C.
Under `CNC1CCN(c2cccc(C(OC3CCN(C)CC3)c3nc4ccccc4s3)c2)C1` (stereo not shown) (as salt: oxalate) [Example 483] stands 115 °C.
For the compound `CN1CCC(OC(c2cccc(-c3ccc(Cl)c(Cl)c3)c2)c2nc3ccccc3[nH]2)CC1` (stereo not shown) (as salt: oxalate) [Example 122, 2-[(3′,4′-dichlorobiphenyl-3-yl)(1-methylpiperidin-4-yloxy)methyl]-1H-benzimidazole], the melting point turned out to be 150 °C.
`CN1CCC(OC(c2cccc(-c3ccc(F)cc3)c2)c2nc3ccccc3[nH]2)CC1` (stereo not shown) (as salt: oxalate) [Example 115, 2-[(4′-fluorobiphenyl-3-yl)(1-methylpiperidin-4-yloxy)methyl]-1H-benzimidazole] registered a melting point of 100 °C.
Compound `CN1CCC(NC(c2cccc(C#CCCCCN)c2)c2nc3ccccc3s2)CC1` (stereo not shown) (as salt: oxalate) [Example 420, {[3-(6-aminohex-1-ynyl)phenyl]benzothiazol-2-yl-methyl}(1-methylpiperidin-4-yl)amine] returned a melting point of 80 °C.
Next, `CSc1cccc(C(NC2CCN(C)CC2)c2nc3ccccc3s2)c1` (stereo not shown) (as salt: oxalate) [Example 111, [benzothiazol-2-yl(3-methylsulfanylphenyl)methyl](1-methylpiperidin-4-yl)amine]: 85 °C.
The compound `CN1CCC(OC(c2cccc(CCCCCCN)c2)c2nc3ccccc3s2)CC1` (stereo not shown) (as salt: oxalate) [Example 325, 6-{3-[benzothiazol-2-yl(1-methylpiperidin-4-yloxy)methyl]phenyl}hexylamine] gave a melting point of 115 °C.
Under `CN1CCC(OC(c2cccc(SCCCF)c2)c2nc3ccccc3[nH]2)CC1` (stereo not shown) (as salt: oxalate) [Example 508] stands 85 °C; under `CN1CCC(OC(c2nc3cccc(F)c3[nH]2)c2cc(OC(F)(F)F)ccc2F)CC1` (stereo not shown) (as salt: oxalate) [Example 529], 135 °C; under `CN1CCC(OC(c2cccc(OC3CNC3)c2)c2nc3ccccc3s2)CC1` (stereo not shown) (as salt: oxalate) [Example 402, 2-[[3-(azetidin-3-yloxy)phenyl](1-methylpiperidin-4-yloxy)methyl]benzothiazole], 81 °C.
With `CN1CCC(OC(c2nc3ccccc3[nH]2)c2cc(C#CCCCCN)ccc2F)CC1` (stereo not shown) (as salt: oxalate) [Example 557, 6-{3-[(1H-benzimidazol-2-yl)(1-methylpiperidin-4-yloxy)methyl]-4-fluorophenyl}hex-5-ynylamine], the melting point worked out at 195 °C.
For the compound `CN1CCC(OC(c2cccc(OC3CC4CNCC4C3)c2)c2nc3ccccc3s2)CC1` (stereo not shown) (as salt: oxalate) [Example 466], the melting point amounted to 70 °C.
`Cc1ccc(C(OC2CCN(C)CC2)c2nc3ccccc3o2)c(F)c1` (stereo not shown) (as salt: oxalate) [Example 545]: the melting point came out at 110 °C.
Under `CN1CCC(OC(c2cccc(-c3ccccc3Cl)c2)c2nc3ccccc3[nH]2)CC1` (stereo not shown) (as salt: oxalate) [Example 121, 2-[(2′-Chlorobiphenyl-3-yl)(1-methylpiperidin-4-yloxy)methyl]-1H-benzimidazole] stands 130 °C.
For `CN1CCC(OC(c2cccc(OCc3cccc(F)c3F)c2)c2nc3ccccc3s2)CC1` (stereo not shown) (as salt: oxalate) [Example 161, 2-[[3-(2,3-difluorobenzyloxy)phenyl](1-methylpiperidin-4-yloxy)methyl]benzothiazole], the melting point was 98 °C.
